Test [1] deals with T1, Dual specificity protein kinase TTK (Homo sapiens) (UniProt P33981).
T1 sequence (whole entry): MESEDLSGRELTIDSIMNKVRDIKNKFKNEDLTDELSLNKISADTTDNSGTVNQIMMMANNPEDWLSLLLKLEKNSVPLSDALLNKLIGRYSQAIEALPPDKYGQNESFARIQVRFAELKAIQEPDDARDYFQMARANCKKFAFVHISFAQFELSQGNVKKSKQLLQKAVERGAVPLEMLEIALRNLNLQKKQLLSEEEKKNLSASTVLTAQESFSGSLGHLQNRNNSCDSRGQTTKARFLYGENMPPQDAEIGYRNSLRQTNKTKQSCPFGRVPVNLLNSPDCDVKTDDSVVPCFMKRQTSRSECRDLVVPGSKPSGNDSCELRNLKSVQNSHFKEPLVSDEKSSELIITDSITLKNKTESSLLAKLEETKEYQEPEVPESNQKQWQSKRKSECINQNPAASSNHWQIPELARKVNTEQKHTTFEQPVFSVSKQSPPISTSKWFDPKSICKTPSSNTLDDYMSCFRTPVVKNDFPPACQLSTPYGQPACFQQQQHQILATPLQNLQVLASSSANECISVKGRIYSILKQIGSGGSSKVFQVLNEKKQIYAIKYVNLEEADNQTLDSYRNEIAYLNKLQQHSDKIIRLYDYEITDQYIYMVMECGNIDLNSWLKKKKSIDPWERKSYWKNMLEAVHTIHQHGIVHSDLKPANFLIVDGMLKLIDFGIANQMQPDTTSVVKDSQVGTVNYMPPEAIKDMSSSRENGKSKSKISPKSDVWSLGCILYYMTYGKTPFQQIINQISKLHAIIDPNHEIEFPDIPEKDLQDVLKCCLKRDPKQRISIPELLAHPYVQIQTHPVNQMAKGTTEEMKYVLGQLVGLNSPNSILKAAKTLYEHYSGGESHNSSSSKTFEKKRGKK
Kind of test: Displacement of tracer K9 from NanoLuc-fused MPS1 (unknown origin) expressed in HEK293T cells at 10 fold IC50 preincubated for 2 hrs followed by compound washout by NanoBRET assay. The format is cell-based.

The target of test [2] is T2, Serine/threonine-protein kinase 17B (Homo sapiens) (UniProt O94768).
T2 sequence (whole entry): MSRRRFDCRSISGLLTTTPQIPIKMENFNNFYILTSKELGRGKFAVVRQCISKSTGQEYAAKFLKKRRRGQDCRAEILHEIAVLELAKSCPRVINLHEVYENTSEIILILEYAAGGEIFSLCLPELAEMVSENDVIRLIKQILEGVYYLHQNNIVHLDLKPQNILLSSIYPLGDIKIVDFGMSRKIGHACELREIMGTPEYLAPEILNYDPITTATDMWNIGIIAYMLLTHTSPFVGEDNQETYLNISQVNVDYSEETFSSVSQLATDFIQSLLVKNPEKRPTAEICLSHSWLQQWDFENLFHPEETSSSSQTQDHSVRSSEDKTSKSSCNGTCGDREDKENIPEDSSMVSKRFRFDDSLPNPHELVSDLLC
To be noted: dose 10.0 µM.

The target of test [3] is T3, Dual specificity protein kinase TTK (Homo sapiens, UniProt P33981).
T3 sequence (P33981 whole entry): T1 sequence (whole entry)
Kind of test: Displacement of tracer K9 from NanoLuc-fused MPS1 (unknown origin) expressed in HEK293T cells measured after 2 hrs by NanoBRET assay. The class given is cell-based. (In general: Bioluminescence resonance energy transfer reports proximity on the nanometre scale.)

Test [4] deals with T3, Dual specificity protein kinase TTK. Put plainly: Inhibition of recombinant human full length N-terminal GST-fused MPS1 (1 to 857 residues) using histone H3 as substrate by TR-FRET assay.
In test [5] the target is Cyclin-G-associated kinase (Homo sapiens) (UniProt O14976). Kind of test: Binding affinity to human GAK assessed as thermal stability by measuring melting temperature 10 uM by differential scanning fluorimetry.
Cyclin-G-associated kinase (Homo sapiens), sequence (O14976 whole entry): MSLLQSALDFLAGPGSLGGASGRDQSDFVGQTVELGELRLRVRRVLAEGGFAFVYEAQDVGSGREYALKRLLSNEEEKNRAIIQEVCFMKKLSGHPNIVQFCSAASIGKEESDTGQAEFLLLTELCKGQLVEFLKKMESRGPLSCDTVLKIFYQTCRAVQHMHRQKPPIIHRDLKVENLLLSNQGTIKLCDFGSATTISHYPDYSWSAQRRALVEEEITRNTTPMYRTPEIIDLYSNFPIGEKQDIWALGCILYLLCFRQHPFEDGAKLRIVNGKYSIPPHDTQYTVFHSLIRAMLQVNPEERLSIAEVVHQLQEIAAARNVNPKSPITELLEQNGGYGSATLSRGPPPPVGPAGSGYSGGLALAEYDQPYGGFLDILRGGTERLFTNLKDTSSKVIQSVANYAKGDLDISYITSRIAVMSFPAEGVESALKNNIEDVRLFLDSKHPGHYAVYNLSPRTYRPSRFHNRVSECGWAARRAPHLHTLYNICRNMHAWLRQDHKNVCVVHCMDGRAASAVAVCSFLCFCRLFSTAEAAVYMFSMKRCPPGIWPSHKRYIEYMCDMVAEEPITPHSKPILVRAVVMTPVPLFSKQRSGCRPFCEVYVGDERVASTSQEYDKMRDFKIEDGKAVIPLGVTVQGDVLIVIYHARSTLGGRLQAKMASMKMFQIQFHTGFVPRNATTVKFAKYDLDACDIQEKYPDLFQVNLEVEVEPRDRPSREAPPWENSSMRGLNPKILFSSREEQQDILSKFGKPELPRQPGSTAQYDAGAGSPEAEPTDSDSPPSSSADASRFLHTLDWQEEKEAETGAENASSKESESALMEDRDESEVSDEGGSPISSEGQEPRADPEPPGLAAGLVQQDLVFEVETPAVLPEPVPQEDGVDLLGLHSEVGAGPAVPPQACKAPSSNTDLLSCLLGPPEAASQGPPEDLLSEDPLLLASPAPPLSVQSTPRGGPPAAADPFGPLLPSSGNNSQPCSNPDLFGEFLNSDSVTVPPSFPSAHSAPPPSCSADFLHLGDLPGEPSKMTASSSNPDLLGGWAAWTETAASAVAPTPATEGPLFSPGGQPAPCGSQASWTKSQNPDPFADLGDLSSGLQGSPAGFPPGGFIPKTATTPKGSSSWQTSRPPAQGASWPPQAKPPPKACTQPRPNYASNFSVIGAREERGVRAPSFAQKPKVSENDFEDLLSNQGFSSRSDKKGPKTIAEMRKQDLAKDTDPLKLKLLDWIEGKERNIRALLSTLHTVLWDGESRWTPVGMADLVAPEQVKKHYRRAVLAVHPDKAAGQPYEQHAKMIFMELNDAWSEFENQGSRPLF

4 compounds from ChEMBL document CHEMBL5038669, “Development of the First Covalent Monopolar Spindle Kinase 1 (MPS1/TTK) Inhibitor” (J Med Chem, 2022) can be followed below.

As usually defined, the ΔTm is the change in melting temperature against a reference sample. What is called IC50 is the concentration that gives 50% inhibition.

Calls of active or inactive are those of the source. The calls are words filed in the database; no cut-off is given here.

On to `COc1cc(OC2CCN(C)CC2)ccc1Nc1ncc2c(n1)n(C1CCCC1)c(=O)n2C`, for which the result in test [1] was inactive. In addition, in test [2], the ΔTm came to 11.5 °C.
On to `CCC(=O)Nc1cc(N2CCN(C)CC2)ccc1Nc1ncc2c(n1)-n1ccc(C(=O)Nc3c(CC)cccc3CC)c1CC2`, for which the IC50 in test [3] came to 32.7 nM; in test [4] it was 9.06 nM. In test [2], the ΔTm came to 17.4 °C.
As for `COc1ccc(Oc2cc(NCCC(F)(F)F)c3ncc(-c4ccc(C(=O)NC5CC5)c(C)c4)n3n2)c(F)c1F`, the ΔTm in test [2] came out at 19.1 °C.
Take `CCc1cccc(CC)c1NC(=O)c1ccn2c1CCc1cnc(Nc3ccc(N4CCN(C)CC4)cc3OC)nc1-2`: the ΔTm was 13.2 °C in test [5] and 21.6 °C in test [2].
